Here are results for 13 molecules from patent US5945436A, “Pyridylmethyl nitriles, amides and thioamides useful as fungicides” (Uniroyal Chemical Company, Inc., priority 1997, dated 1999).

Assay [1] has as its system Colletotrichum gossypii. Put plainly: Fungal growth inhibition, treated disc on agar (COL GOS). The assay is classed as cell-based. To be noted: disc dipped in 500 mg/l, 29° C.; for inhibition at 500 µg/mL: Colletotrichum gossypii, read-out: Percent Growth Inhibition, COL GOS.
The test system of assay [2] is Scierotinia minor. The experiment in a line: Fungal growth inhibition, treated disc on agar (SCL MIN). The assay is classed as cell-based. To be noted: disc dipped in 500 mg/l, 29° C.; for inhibition at 500 µg/mL: read-out: Percent Growth Inhibition, SCL MIN.
Assay [3] concerns Helminthosporium sativum. The experiment in a line: Barley spot blotch, foliar treatment (HEL SAT). The assay is classed as in vivo. To be noted: foliar, 1,000 mg/l; for pest or weed control at 1000 µg/mL: Helminthosporium, foliar, 216 h, read-out: Percent Reduction of Disease, HEL SAT. On the procedure:
Compositions containing Compounds Nos. 1-81 were prepared by dissolving 0.24 grams of each of the compounds in 8 ml of acetone or other suitable inert solvent. Each of the resultant solutions was treated with 3 drops of TWEEN 20 (ethoxylated ethylene sorbitan monolaurate, a non-ionic surfactant)(I.C.I.), and water was added to form an emulsion. The degree of dilution with water was dictated by the desired concentration of the compound in the composition. The greater the quantity of water added, the lower the concentration of the compound in the composition, reported in milligrams per liter (mg/l) Ten plants of six day-old Barley (variety "Robust") were planted in each of a plurality of pots. Each pot was then either sprayed with one of the compositions of Example 9, at a concentration of 1,000 mg/l, or left unsprayed. The unsprayed plants were used as controls. An equal number of pots were sprayed and unsprayed. All plants, sprayed and unsprayed, were thereafter inoculated with spores of the blotch fungus Helminthosporium sativum. All inoculated plants were placed in a 99% humidity chamber for 24 hours and then placed in a greenhouse, maintained at a temperature of 21° C., for eight days. […] Percent control was computed and the results are summarized in Table II under the heading "HEL SAT".

The test system of assay [4] is Erysiphe polygoni. The experiment in a line: Powdery mildew on pinto bean, foliar application (ERY POL). The assay is classed as in vivo. To be noted: similar procedure as barley (1,000 mg/l); for pest or weed control at 1000 µg/mL: Erysiphe polygoni, read-out: Percent Reduction of Disease, ERY POL. As to the method:
Compositions containing Compounds Nos. 1-81 were prepared by dissolving 0.24 grams of each of the compounds in 8 ml of acetone or other suitable inert solvent. Each of the resultant solutions was treated with 3 drops of TWEEN 20 (ethoxylated ethylene sorbitan monolaurate, a non-ionic surfactant)(I.C.I.), and water was added to form an emulsion. The degree of dilution with water was dictated by the desired concentration of the compound in the composition. The greater the quantity of water added, the lower the concentration of the compound in the composition, reported in milligrams per liter (mg/l) Ten plants of "Robust" variety barley were planted in each of a plurality of pots. Each pot was then either sprayed with one of the compositions of Example 9, at a composition concentration of 1,000 mg/l, or left unsprayed. For each pot sprayed, one pot was left unsprayed as a control. After the leaves of the sprayed pots were dried, the sprayed pots and the unsprayed control pots were placed in a greenhouse maintained at 21° C. All the pots were then inoculated with barley powdery mildew fungus, Erysiphe graminis. This inoculation was accomplished by distributing spores of the fungus over the leaves of the plants to be tested from plants which had previously been infected with the mildew disease. […] Again, percent control was computed by comparing the treatment scores with the scores of the untreated controls. The results are summarized in Table II under the heading "ERY GRA". Using a similar procedure as described above for the barley, pinto bean plants were prepared, treated and inoculated with the fungus Erysiphe polygoni. The results of this testing are summarized in Table II under the heading "ERY POL".

For assay [5], the system named is Pyricularia oryzae. The experiment in a line: whole plant or invertebrate. The assay is classed as in vivo. To be noted: for pest or weed control at 1000 µg/mL: Pyricularia oryzae, in Hordeum vulgare, foliar, 216 h, read-out: Percent Reduction of Disease, PYR ORY, barley, foliar, 1,000 mg/l.
Assay [6] deals with Erysiphe graminis. The experiment in a line: Powdery mildew of barley, systemic root uptake (BMS). The assay is classed as in vivo. To be noted: 45 ml of 250 mg/l, 8 days after inoculation. As to the method:
Compositions containing Compounds Nos. 1-81 were prepared by dissolving 0.24 grams of each of the compounds in 8 ml of acetone or other suitable inert solvent. Each of the resultant solutions was treated with 3 drops of TWEEN 20 (ethoxylated ethylene sorbitan monolaurate, a non-ionic surfactant)(I.C.I.), and water was added to form an emulsion. The degree of dilution with water was dictated by the desired concentration of the compound in the composition. The greater the quantity of water added, the lower the concentration of the compound in the composition, reported in milligrams per liter (mg/l) […] Upon reaching these ages, the plants were either treated with 45 ml of 250 mg/l concentration of the compositions of Example 9 or were left untreated. The untreated plants were used as controls. The 45 ml compositions saturated the soil of the treated pots without significant loss through drainage into the saucers below the pots. Twenty-four hours after the treatment with the compositions, both the barley and cucumber plants in all the pots, those treated and those untreated, were inoculated with powdery mildew fungus. This was accomplished by tapping leaves of previously infected barley and cucumber plants over the treated and untreated pots containing the barley and cucumber plants, respectively, to distribute spores of the fungus over the plants tested. […] Intermediate ratings were assigned depending on the degree of disease. […] The results of the powdery mildew disease control of barley are reported under the heading of "BMS". The results for cucumber mildew control are reported under the heading "CMS".

Assay [7] relates to Rhizoctonia solani. Put plainly: Fungal growth inhibition, treated disc on agar (RHI SOL). The assay is classed as cell-based. To be noted: disc dipped in 500 mg/l, 29° C.; for inhibition at 500 µg/mL: Rhizoctonia solani, read-out: Percent Growth Inhibition, RHI SOL.
Source text: Filter paper discs, each 11 mm. in diameter, were dipped in each of the test solutions. The discs were allowed to air dry to drive off the acetone solvent. A number of untreated discs were used as controls.
The treated and untreated discs were then placed on agar plates and one of the following fungus species: Septoria nodorum (SEP NOD), Botrytis cinerea (BOT CIN), Fusarium oxysporum (FUS OXY), Pythium ultimum (PYT ULT), Rhizoctonia solani (RHI SOL), Colletotrichum gossypii (COL GOS), and Scierotinia minor (SCL MIN), was added to the center of each disc in the form of a culture plug with the fungus mat in contact with the paper of the test disc. Cercosporidium personatum (CER PER), was added to discs as a spore suspension (20,000 spores/ml) to the disc (two drops of spore suspension per disc), rather than a mycelial culture plug. The plates were then incubated at 29° C. in an oven.
With the exception of the discs containing Cercosporidium personatum, the discs were evaluated by first measuring the radius from the center of the fungus colony on the treated discs and on the untreated discs. Percent growth inhibition of each of the compounds tested was determined as a function of the difference between the radius of the fungus colony on the treated disc versus the radius of the fungus colony on the untreated disc.
Assay [8] relates to Pythium ultimum. The experiment in a line: Fungal growth inhibition, treated disc on agar (PYT ULT). The assay is classed as cell-based. To be noted: disc dipped in 500 mg/l, 29° C.; for inhibition at 500 µg/mL: Globisporangium ultimum, read-out: Percent Growth Inhibition, PYT ULT.

For the molecule `CCCC(C#N)(CCc1ccc(F)cc1)c1cccnc1` (centres unmarked) [Compound 10], the inhibition (usually the share of the control response that was lost under treatment) at 500 µg/mL in assay [1] came out at 97%; in assay [2], 100%; in assay [7] it was 96%; in assay [8] it was 40%. For the same molecule, the results for the pest or weed control at 1000 µg/mL in assay [3], in assay [4] and in assay [5] were 100%, 99% and 70%, respectively. Besides, in assay [6], the “Percent Reduction of Disease, BMS” value is 84%.

As for `CCCCC(C#N)(CCc1ccc(F)cc1)c1cccnc1` (centres unmarked) [Compound 11], the inhibition at 500 µg/mL in assay [1] came out at 100%; in assay [2], 98%; in assay [7], 98%; in assay [8], 40%. Further, the pest or weed control at 1000 µg/mL in assay [3] turned out to be 100%; in assay [4], 100%; in assay [5], 85%. For the same molecule, the “Percent Reduction of Disease, BMS” value in assay [6] amounted to 74%.

Regarding `CCCC(C#N)(CCCc1ccc(Cl)cc1)c1cccnc1` (centres unmarked) [Compound 12], the inhibition at 500 µg/mL worked out at 93% in assay [1], 92% in assay [2], 98% in assay [7] and 90% in assay [8]. Moreover, the pest or weed control at 1000 µg/mL in assay [3] turned out to be 100%; in assay [4], 95%; in assay [5] it was 85%. In addition, in assay [6], the “Percent Reduction of Disease, BMS” value is 40%.

On to `CCCCC(C#N)(CCCc1ccc(Cl)cc1)c1cccnc1` (centres unmarked) [Compound 13], for which the inhibition at 500 µg/mL in assay [1] stood at 93%; in assay [2], 94%; in assay [7] it was 100%; in assay [8], 10%. In addition, the pest or weed control at 1000 µg/mL in assay [3] was determined as 100%; in assay [4], 100%; in assay [5], 85%. Besides, in assay [6], the “Percent Reduction of Disease, BMS” value amounted to 40%.

Regarding `CCCC(C#N)(Cc1ccc(C(C)(C)C)cc1)c1cccnc1` (centres unmarked) [Compound 14], the inhibition at 500 µg/mL came out at 5% in assay [1], 5% in assay [2], 5% in assay [7] and 10% in assay [8]. The pest or weed control at 1000 µg/mL in assay [3] worked out at 60%; in assay [4], 100%; in assay [5], 100%. Moreover, the “Percent Reduction of Disease, BMS” value in assay [6] is 0%.

Consider `CCCC(C#N)(CCCc1ccccc1Cl)c1cccnc1` (stereo not drawn) [Compound 15, 2-chloro-α-propyl-(3-pyridinyl)benzene pentanenitrile], for which the inhibition at 500 µg/mL in assay [1] turned out to be 93%; in assay [2], 100%; in assay [7], 98%; in assay [8], 83%. The pest or weed control at 1000 µg/mL in assay [3] is 100%; in assay [4] it was 100%; in assay [5], 85%. Besides, the “Percent Reduction of Disease, BMS” value in assay [6] turned out to be 0%.

`CCCCCCC(C#N)(Cc1ccc(C(C)(C)C)cc1)c1cccnc1` (centres unmarked) [Compound 16]: the inhibition at 500 µg/mL in assay [1] came to 42%; in assay [2], 5%; in assay [7], 25%; in assay [8], 45%. In addition, the figures for the pest or weed control at 1000 µg/mL in assay [3], in assay [4] and in assay [5] were 85%, 100% and 20%, respectively. Moreover, the “Percent Reduction of Disease, BMS” value in assay [6] is on record as 0%.

Turning to `CCCC(C#N)(Cc1ccc(Oc2ccccc2)cc1)c1cccnc1` (centres unmarked) [Compound 17], the inhibition at 500 µg/mL in assay [1] was 20%; in assay [2], 10%; in assay [7] it was 45%; in assay [8], 45%. Besides, the pest or weed control at 1000 µg/mL in assay [3] worked out at 0%; in assay [4], 100%; in assay [5] it was 70%. Further, the “Percent Reduction of Disease, BMS” value in assay [6] stood at 0%.

For the molecule `C=CCC(C#N)(Cc1ccc(C(C)(C)C)cc1)c1cccnc1` (centres unmarked) [Compound 18], the inhibition at 500 µg/mL is 10% in assay [1], 10% in assay [2], 40% in assay [7] and 40% in assay [8]. The pest or weed control at 1000 µg/mL was 100% in assay [3], 100% in assay [4] and 85% in assay [5]. For the same molecule, the “Percent Reduction of Disease, BMS” value in assay [6] worked out at 20%.

With `CCCCC(C#N)(Cc1ccc(C(C)(C)C)cc1)c1cccnc1` (centres unmarked) [Compound 19], the inhibition at 500 µg/mL in assay [1] worked out at 91%; in assay [2], 100%; in assay [7], 91%; in assay [8] it was 93%. Moreover, the pest or weed control at 1000 µg/mL in assay [3] was determined as 100%; in assay [4], 100%; in assay [5] it was 35%. Moreover, the “Percent Reduction of Disease, BMS” value in assay [6] came to 35%.

As for `CCCC(C#N)(CCc1ccccc1)c1ccncc1` (centres unmarked) [Compound 25], the inhibition at 500 µg/mL in assay [1] is 72%; in assay [2], 86%; in assay [7] it was 4%; in assay [8] it was 0%. Moreover, the pest or weed control at 1000 µg/mL came out at 0% in assay [3], 17% in assay [4] and 0% in assay [5]. For the same molecule, the “Percent Reduction of Disease, BMS” value in assay [6] was determined as 0%.

Turning to `CCCCC(C#N)(CCc1ccccc1)c1ccncc1` (centres unmarked) [Compound 26], the inhibition at 500 µg/mL was 75% in assay [1], 96% in assay [2], 4% in assay [7] and 0% in assay [8]. The pest or weed control at 1000 µg/mL amounted to 0% in assay [3], 17% in assay [4] and 0% in assay [5]. In assay [6], the “Percent Reduction of Disease, BMS” value is 0%.

In the case of `C=CCC(C#N)(CCc1ccc(OC)cc1)c1ccccn1` (centres unmarked) [Compound 28], the “Percent Growth Inhibition, COL GOS” value in assay [1] is recorded as 100%. Besides, the “Percent Growth Inhibition, SCL MIN” value in assay [2] is 96%. The “Percent Reduction of Disease, HEL SAT” value in assay [3] is on record as 100%. Also, in assay [4], the “Percent Reduction of Disease, ERY POL” value is 100%. Besides, the “Percent Reduction of Disease, PYR ORY” value in assay [5] (barley, foliar, 1,000 mg/l) amounted to 85%. The “Percent Reduction of Disease, BMS” value in assay [6] amounted to 0%. The “Percent Growth Inhibition, RHI SOL” value in assay [7] was 60%. The “Percent Growth Inhibition, PYT ULT” value in assay [8] amounted to 10%.
